{"source": "ChEMBL document CHEMBL1137942", "about": "“Design, synthesis, and biological activity of novel, potent, and selective (benzoylaminomethyl)thiophene sulfonamide inhibitors of c-Jun-N-terminal kinase” (J Med Chem, 2004)", "key": {"[1]": {"target": "Ribosomal protein S6 kinase alpha-1 (Homo sapiens) (UniProt Q15418)", "assay": "Percentage activity of human Rsk1 in the presence of 10 uM of compound and 10 uM of ATP in comparison with control"}, "[2]": {"target": "Inhibitor of nuclear factor kappa-B kinase subunit beta (Homo sapiens) (UniProt O14920)", "assay": "Percentage activity of human IKK beta in the presence of 10uM of compound and 10uM of ATP in comparison with control"}, "[3]": {"target": "Dual specificity mitogen-activated protein kinase kinase 7 (Homo sapiens) (UniProt O14733)", "sequence (O14733 whole entry)": "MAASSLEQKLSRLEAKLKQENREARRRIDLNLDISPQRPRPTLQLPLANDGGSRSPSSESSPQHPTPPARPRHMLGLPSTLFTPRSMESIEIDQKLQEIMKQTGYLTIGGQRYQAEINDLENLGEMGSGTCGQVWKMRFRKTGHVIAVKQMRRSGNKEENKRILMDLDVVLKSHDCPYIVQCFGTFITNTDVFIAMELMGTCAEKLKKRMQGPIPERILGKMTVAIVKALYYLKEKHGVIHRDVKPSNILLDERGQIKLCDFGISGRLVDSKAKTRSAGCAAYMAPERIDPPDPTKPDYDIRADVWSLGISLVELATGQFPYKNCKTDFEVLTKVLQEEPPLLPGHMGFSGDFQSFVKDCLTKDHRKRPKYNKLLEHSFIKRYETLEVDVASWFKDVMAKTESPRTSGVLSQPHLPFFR", "assay": "Percentage activity of human MKK7 beta in the presence of 10 uM of compound and 10 uM of ATP in comparison with control"}, "[4]": {"target": "Cyclin-dependent kinase 2/cyclin E (Homo sapiens) (UniProt P24864+P24941+O96020)", "assay": "Percentage activity of human CDK2 (with cyclin E) in the presence of 10 uM of compound and 10 uM of ATP in comparison with control", "type": "protein-complex assay"}, "[5]": {"target": "Tyrosine-protein kinase CSK (Homo sapiens) (UniProt P41240)", "sequence (P41240 2-450 limits assumed)": "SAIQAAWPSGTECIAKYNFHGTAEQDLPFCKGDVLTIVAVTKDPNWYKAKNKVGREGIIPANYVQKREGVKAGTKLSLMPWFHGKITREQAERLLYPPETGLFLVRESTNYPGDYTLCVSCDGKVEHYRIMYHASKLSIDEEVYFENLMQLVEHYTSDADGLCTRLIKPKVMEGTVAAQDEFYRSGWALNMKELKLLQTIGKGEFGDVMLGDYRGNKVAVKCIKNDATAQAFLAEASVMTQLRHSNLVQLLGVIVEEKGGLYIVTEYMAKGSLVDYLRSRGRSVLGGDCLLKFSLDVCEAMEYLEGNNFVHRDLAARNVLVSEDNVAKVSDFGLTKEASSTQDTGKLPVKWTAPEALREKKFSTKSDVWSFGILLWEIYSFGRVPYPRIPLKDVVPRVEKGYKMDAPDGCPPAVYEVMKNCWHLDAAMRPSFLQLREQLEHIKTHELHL", "assay": "Percentage activity of human CSK in the presence of 10uM of compound and 10uM of ATP in comparison with control"}, "[6]": {"target": "Tyrosine-protein kinase Lck (Homo sapiens) (UniProt P06239)", "sequence (P06239 2-509 limits assumed)": "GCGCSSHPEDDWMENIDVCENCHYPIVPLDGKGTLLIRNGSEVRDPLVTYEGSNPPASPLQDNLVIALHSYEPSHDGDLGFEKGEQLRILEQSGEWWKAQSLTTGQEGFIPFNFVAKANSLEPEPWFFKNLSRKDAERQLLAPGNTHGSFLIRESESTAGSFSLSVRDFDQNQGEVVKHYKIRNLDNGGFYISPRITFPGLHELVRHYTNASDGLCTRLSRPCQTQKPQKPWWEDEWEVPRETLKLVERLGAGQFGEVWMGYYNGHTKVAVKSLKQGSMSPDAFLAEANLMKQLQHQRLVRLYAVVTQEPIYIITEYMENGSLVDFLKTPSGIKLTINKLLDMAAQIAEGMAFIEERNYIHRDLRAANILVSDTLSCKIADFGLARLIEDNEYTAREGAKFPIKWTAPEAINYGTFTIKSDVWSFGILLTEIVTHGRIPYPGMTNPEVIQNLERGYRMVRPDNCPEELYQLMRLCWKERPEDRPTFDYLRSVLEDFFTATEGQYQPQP", "assay": "Percentage activity of human Lck in the presence of 10 uM of compound and 10 uM of ATP in comparison with control"}, "[7]": {"target": "Serine/threonine-protein kinase D2 (Homo sapiens) (UniProt Q9BZL6)", "assay": "Percentage activity of human PKD2 in the presence of 10 uM of compound and 10 uM of ATP in comparison with control"}, "[8]": {"target": "MAP kinase-activated protein kinase 2 (Homo sapiens) (UniProt P49137)", "assay": "Percentage activity of human MAPKAP-K2 in the presence of 10uM of compound and 10uM of ATP in comparison with control"}, "[9]": {"target": "Serine/threonine-protein kinase N2 (Homo sapiens) (UniProt Q16513)", "sequence (Q16513 whole entry, looked up)": "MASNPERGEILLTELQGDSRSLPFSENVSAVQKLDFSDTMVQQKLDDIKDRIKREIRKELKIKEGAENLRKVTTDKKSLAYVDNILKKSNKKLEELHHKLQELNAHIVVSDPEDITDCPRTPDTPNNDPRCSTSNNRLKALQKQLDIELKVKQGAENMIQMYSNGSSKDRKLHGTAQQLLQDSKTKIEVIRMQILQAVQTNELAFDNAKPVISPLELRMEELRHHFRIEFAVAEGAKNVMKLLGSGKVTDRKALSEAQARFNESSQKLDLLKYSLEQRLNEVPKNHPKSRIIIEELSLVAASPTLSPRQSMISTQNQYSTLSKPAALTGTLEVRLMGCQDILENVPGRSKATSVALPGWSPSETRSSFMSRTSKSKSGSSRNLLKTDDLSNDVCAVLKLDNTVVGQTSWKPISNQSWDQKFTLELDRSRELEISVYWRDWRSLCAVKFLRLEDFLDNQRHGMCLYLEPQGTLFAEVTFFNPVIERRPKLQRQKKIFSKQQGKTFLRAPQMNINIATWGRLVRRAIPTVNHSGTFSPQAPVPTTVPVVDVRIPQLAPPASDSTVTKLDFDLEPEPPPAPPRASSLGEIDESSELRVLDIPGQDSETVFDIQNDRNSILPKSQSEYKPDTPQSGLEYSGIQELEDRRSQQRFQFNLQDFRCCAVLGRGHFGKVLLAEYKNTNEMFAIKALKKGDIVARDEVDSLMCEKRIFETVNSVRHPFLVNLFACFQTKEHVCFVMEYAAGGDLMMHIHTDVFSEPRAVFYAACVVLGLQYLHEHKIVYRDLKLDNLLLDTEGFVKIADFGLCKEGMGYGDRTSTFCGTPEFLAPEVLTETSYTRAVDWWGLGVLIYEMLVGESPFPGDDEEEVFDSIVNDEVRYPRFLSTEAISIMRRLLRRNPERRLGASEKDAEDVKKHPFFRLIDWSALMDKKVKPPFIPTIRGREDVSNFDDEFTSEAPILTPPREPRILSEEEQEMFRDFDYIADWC", "assay": "Percentage activity of human PRK2 in the presence of 10 uM of compound and 10 uM of ATP in comparison with control"}, "[10]": {"target": "Mitogen-activated protein kinase 9, JNK2 (Homo sapiens) (UniProt P45984)", "assay": "Percentage activity of human JNK2a2 in the presence of 10 uM of compound and 10 uM of ATP in comparison with control"}, "[11]": {"target": "Serine/threonine-protein kinase Chk2 (Homo sapiens) (UniProt O96017)", "assay": "Percentage activity of human CHK2 in the presence of 10 uM of compound and 10 uM of ATP in comparison with control"}, "[12]": {"target": "Serine/threonine-protein kinase Sgk1 (Homo sapiens) (UniProt O00141)", "assay": "Percentage activity of human SGK in the presence of 10 uM of compound and 10 uM of ATP in comparison with control"}, "[13]": {"target": "RAC-beta serine/threonine-protein kinase (Homo sapiens) (UniProt P31751)", "assay": "Percentage activity of human PKB beta in the presence of 10uM of compound and 10uM of ATP in comparison with control"}, "[14]": {"target": "Serine/threonine-protein kinase PAK 2 (Homo sapiens) (UniProt Q13177)", "assay": "Percentage activity of human PAK2 in the presence of 10 uM of compound and 10 uM of ATP in comparison with control"}, "[15]": {"target": "Tyrosine-protein kinase ABL2 (Mus musculus) (UniProt Q4JIM5)", "assay": "Percentage activity of mouse Arg in the presence of 10 uM of compound and 10 uM of ATP in comparison with control"}, "[16]": {"target": "Ribosomal protein S6 kinase alpha-3 (Homo sapiens) (UniProt P51812)", "assay": "Percentage activity of human Rsk3 in the presence of 10uM of compound and 10uM of ATP in comparison with control"}, "[17]": {"target": "Tyrosine-protein kinase Fyn (Homo sapiens) (UniProt P06241)", "sequence (P06241 2-537 limits assumed)": "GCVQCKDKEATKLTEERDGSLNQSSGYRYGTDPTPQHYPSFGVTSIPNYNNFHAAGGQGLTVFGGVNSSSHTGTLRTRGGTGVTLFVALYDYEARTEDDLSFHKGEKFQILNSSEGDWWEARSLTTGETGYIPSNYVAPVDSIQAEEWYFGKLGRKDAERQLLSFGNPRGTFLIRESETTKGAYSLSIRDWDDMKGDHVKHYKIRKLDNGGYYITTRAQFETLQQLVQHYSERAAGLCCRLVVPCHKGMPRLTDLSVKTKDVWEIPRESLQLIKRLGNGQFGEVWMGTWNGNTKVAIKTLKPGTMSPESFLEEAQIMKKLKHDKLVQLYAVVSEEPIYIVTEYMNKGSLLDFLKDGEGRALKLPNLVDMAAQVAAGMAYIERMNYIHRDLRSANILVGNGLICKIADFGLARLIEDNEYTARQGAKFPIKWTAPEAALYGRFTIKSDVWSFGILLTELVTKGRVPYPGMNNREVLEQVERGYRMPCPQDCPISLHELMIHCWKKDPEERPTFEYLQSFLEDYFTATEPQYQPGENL", "assay": "Percentage activity of human Fyn in the presence of 10 uM of compound and 10 uM of ATP in comparison with control"}, "[18]": {"target": "Serine/threonine-protein kinase Chk1 (Homo sapiens) (UniProt O14757)", "assay": "Percentage activity of human CHK1 in the presence of 10 uM of compound and 10 uM of ATP in comparison with control"}, "[19]": {"target": "Inhibitor of nuclear factor kappa-B kinase subunit alpha (Homo sapiens) (UniProt O15111)", "assay": "Percentage activity of human IKK alpha in the presence of 10 uM of compound and 10 uM of ATP in comparison with control"}, "[20]": {"target": "CDK6/cyclin D3 (Homo sapiens) (UniProt P30281+Q00534)", "assay": "Percentage activity of human CDK6 with cyclin D3) in the presence of 10uM of compound and 10uM of ATP in comparison with control", "type": "protein-complex assay"}, "SCG [21]": {"tested_on": "SCG", "assay": "Cell activity of JNK inhibitors in neuronal apoptosis assay in SCG cells, percentage rescued neurons at 10 uM compound concentration after 24 hours", "type": "functional, Rattus norvegicus"}, "[22]": {"target": "Protein kinase C eta type (Homo sapiens) (UniProt P24723)", "sequence (P24723 whole entry)": "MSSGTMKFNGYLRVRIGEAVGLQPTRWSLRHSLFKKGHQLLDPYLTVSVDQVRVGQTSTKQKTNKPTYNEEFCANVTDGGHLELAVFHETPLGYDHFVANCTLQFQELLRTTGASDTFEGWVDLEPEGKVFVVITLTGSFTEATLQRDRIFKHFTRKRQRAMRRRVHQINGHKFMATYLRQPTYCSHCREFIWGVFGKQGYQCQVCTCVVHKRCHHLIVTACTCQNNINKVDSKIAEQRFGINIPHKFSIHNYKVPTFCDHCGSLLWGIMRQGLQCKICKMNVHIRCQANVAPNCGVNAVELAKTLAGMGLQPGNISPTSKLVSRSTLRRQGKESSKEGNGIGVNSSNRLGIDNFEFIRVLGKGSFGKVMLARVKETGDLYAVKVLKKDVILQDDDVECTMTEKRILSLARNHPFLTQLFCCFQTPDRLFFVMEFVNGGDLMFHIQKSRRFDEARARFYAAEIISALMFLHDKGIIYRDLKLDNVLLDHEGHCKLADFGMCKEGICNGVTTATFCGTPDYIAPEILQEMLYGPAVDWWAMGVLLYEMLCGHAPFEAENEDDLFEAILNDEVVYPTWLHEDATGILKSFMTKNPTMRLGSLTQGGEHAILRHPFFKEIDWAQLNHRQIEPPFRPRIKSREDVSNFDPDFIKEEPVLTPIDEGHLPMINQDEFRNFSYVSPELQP", "assay": "Percentage activity of human PKC eta in the presence of 10 uM of compound and 10 uM of ATP in comparison with control"}, "[23]": {"target": "Aurora kinase A (Homo sapiens) (UniProt O14965)", "assay": "Percentage activity of human Aurora-A in the presence of 10 uM of compound and 10 uM of ATP in comparison with control"}, "[24]": {"target": "Mitogen-activated protein kinase 8 (Homo sapiens) (UniProt P45983)", "assay": "Percentage activity of human JNK1a1 in the presence of 10 uM of compound and 10 uM of ATP in comparison with control"}, "SCG [25]": {"tested_on": "SCG", "assay": "Cell activity of JNK inhibitors in neuronal apoptosis assay in SCG cells, percentage rescued neurons at 1 uM compound concentration after 24 hours", "type": "functional, cell-based", "conditions": "Rattus norvegicus"}, "[26]": {"target": "Mitogen-activated protein kinase 10 (Homo sapiens) (UniProt P53779)", "assay": "Percentage activity of human JNK3 in the presence of 10 uM of compound and 10 uM of ATP in comparison with control"}, "[27]": {"target": "Serine/threonine-protein kinase D1 (Homo sapiens) (UniProt Q15139)", "sequence (Q15139 whole entry)": "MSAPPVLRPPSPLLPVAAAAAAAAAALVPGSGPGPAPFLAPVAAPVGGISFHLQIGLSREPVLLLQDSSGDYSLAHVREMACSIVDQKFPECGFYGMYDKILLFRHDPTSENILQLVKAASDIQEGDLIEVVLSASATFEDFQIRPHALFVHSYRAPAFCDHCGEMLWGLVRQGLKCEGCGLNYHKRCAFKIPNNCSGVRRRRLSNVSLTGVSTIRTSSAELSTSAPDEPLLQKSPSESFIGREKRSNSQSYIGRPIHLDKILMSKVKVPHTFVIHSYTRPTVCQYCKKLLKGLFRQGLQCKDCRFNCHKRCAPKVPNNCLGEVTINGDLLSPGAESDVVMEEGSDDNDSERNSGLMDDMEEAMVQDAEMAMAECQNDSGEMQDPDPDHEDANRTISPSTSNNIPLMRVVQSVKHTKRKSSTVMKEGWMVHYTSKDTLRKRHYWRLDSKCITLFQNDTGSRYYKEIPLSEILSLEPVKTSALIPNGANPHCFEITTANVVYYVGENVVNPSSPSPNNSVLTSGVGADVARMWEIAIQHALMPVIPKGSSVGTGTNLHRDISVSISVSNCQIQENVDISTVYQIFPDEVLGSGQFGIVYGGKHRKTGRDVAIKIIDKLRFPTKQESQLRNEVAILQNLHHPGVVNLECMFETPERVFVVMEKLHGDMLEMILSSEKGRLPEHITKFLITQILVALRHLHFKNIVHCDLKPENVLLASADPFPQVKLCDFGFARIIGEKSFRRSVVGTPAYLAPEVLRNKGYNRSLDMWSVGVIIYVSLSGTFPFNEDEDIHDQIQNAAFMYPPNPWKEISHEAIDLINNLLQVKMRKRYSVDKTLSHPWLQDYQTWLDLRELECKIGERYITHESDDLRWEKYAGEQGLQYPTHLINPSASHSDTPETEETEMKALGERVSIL", "assay": "Percentage activity of human PKC mu in the presence of 10 uM of compound and 10 uM of ATP in comparison with control"}, "[28]": {"target": "Mitogen-activated protein kinase 14 (Homo sapiens) (UniProt Q16539)", "sequence (Q16539 whole entry)": "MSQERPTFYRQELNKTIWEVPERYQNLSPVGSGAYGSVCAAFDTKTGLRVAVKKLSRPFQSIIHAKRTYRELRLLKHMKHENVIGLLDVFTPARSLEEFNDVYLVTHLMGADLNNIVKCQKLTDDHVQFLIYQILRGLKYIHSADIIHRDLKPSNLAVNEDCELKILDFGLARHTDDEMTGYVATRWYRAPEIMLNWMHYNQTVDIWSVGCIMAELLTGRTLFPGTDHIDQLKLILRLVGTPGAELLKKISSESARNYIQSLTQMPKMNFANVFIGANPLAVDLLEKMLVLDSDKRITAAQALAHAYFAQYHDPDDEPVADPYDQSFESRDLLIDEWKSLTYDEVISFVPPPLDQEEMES", "assay": "Percentage activity of human SAPK2a in the presence of 10 uM of compound and 10 uM of ATP in comparison with control"}, "[29]": {"target": "RAC-alpha serine/threonine-protein kinase (Homo sapiens) (UniProt P31749)", "assay": "Percentage activity of human PKB alpha in the presence of 10 uM of compound and 10 uM of ATP in comparison with control"}, "[30]": {"target": "3-phosphoinositide-dependent protein kinase 1 (Homo sapiens) (UniProt O15530)", "assay": "Percentage activity of human PDK1 in the presence of 10 uM of compound and 10 uM of ATP in comparison with control"}, "[31]": {"target": "Tyrosine-protein kinase Lyn (Homo sapiens) (UniProt P07948)", "assay": "Percentage activity of human Lyn in the presence of 10 uM of compound and 10 uM of ATP in comparison with control"}}, "note": "Active and inactive are the calls of the source. The calls are words filed in the database; no cut-off is given here."}
{"smiles": "O=C(NCc1ccc(S(=O)(=O)N2CCC(n3nnc4ccccc43)CC2)s1)c1ccc(Cl)cc1", "values": [{"measurement": "Activity", "setting": "[1]", "result": 93, "unit": "%"}, {"measurement": "Activity", "setting": "[2]", "result": 96, "unit": "%"}, {"measurement": "Activity", "setting": "[3]", "result": 121, "unit": "%"}, {"measurement": "Activity", "setting": "[4]", "result": 94, "unit": "%"}, {"measurement": "Activity", "setting": "[5]", "result": 130, "unit": "%"}, {"measurement": "Activity", "setting": "[6]", "result": 85, "unit": "%"}, {"measurement": "Activity", "setting": "[7]", "result": 95, "unit": "%"}, {"measurement": "Activity", "setting": "[8]", "result": 74, "unit": "%"}, {"measurement": "Activity", "setting": "[9]", "result": 92, "unit": "%"}, {"measurement": "Activity", "setting": "[10]", "result": 16, "unit": "%"}, {"measurement": "Activity", "setting": "[11]", "result": 75, "unit": "%"}, {"measurement": "Activity", "setting": "[12]", "result": 67, "unit": "%"}, {"measurement": "Activity", "setting": "[13]", "result": 118, "unit": "%"}, {"measurement": "Activity", "setting": "[14]", "result": 88, "unit": "%"}, {"measurement": "Activity", "setting": "[15]", "result": 91, "unit": "%"}, {"measurement": "Activity", "setting": "[16]", "result": 97, "unit": "%"}, {"measurement": "Activity", "setting": "[17]", "result": 46, "unit": "%"}, {"measurement": "Activity", "setting": "[18]", "result": 130, "unit": "%"}, {"measurement": "Activity", "setting": "[19]", "result": 92, "unit": "%"}, {"measurement": "Activity", "setting": "[20]", "result": 102, "unit": "%"}, {"measurement": "Rescued neurons", "setting": "SCG [21]", "result": 27.3, "unit": "%"}, {"measurement": "Activity", "setting": "[22]", "result": 100, "unit": "%"}, {"measurement": "Activity", "setting": "[23]", "result": 79, "unit": "%"}, {"measurement": "Activity", "setting": "[24]", "result": 20, "unit": "%"}, {"measurement": "Rescued neurons", "setting": "SCG [25]", "result": "inactive"}, {"measurement": "Activity", "setting": "[26]", "result": 6, "unit": "%"}, {"measurement": "Activity", "setting": "[27]", "result": 93, "unit": "%"}, {"measurement": "Activity", "setting": "[28]", "result": 77, "unit": "%"}, {"measurement": "Activity", "setting": "[29]", "result": 51, "unit": "%"}, {"measurement": "Activity", "setting": "[30]", "result": 98, "unit": "%"}, {"measurement": "Activity", "setting": "[31]", "result": 89, "unit": "%"}]}
